# In ChEMBL document CHEMBL5137114, “Discovery of IHMT-MST1-58 as a Novel, Potent, and Selective MST1 Inhibitor for the Treatment of Type 1/2 Diabetes” (J Med Chem, 2022):
# The source made the active and inactive calls. The calls are words filed in the database; no cut-off is given here.
# How the values were obtained:
# Mus musculus [1] = assay: Antidiabetic activity against multi low dose STZ-induced C57BL/6J mouse model of type 1 diabetes assessed as food intake at 50 mg/kg, po administered for 78 to 79 days (reference value: 4.7 g/day); assay type: functional; details: time 78-79 day
# INS1 = assay: Cytotoxicity against rat INS1 cells at 10 uM incubated for 72 hrs by Cell Titer-Glo assay; assay type: toxicity, cell-based; details: ins1, 72 h
# [2] = tested on: Serine/threonine-protein kinase 4 (Rattus norvegicus); assay: Inhibition of INF-gamma-stimulated MST1 in rat RIN-m5F cells assessed as reduction in MOB1 autophosphorylation incubated for 12 hrs by Western blotting analysis; details: dose 0.1-10 µM, DDE = dose-dependent effect
# [3] = Half life in Sprague-Dawley rat at 10 mg/kg, po measured up to 24 hrs by LC-MS/MS analysis; assay type: ADME, organism-based; details: in vivo
# [4] = target: T1, Serine/threonine-protein kinase 4 (Homo sapiens, UniProt Q13043); assay: Binding affinity to wild-type human full length MST1 (M1 to F487 residues) expressed in bacterial expression system by Kinomescan method
# T1 sequence (Q13043 whole entry): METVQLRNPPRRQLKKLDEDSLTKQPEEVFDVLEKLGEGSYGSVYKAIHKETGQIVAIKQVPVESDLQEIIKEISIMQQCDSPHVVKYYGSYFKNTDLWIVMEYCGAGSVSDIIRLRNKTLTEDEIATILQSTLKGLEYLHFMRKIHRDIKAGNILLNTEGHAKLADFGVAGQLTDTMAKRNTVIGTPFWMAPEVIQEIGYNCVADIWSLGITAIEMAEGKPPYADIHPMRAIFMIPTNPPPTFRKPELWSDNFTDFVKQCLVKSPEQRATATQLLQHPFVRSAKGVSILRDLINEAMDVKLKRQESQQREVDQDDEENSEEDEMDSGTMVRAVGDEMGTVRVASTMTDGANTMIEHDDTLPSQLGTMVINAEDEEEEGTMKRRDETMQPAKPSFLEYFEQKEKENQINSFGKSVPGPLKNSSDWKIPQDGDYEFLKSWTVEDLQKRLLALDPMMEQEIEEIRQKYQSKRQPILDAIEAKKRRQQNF
# [5] = Half life in Sprague-Dawley rat at 1 mg/kg, iv measured up to 12 hrs by LC-MS/MS analysis; assay type: ADME, organism-based; details: in vivo
# [6] = target: T2, Serine/threonine-protein kinase 3 (Homo sapiens, UniProt Q13188); assay: Binding affinity to wild-type human partial length MST2 (D17 to E318 residues) expressed in bacterial expression system by Kinomescan method
# T2 sequence (Q13188 whole entry): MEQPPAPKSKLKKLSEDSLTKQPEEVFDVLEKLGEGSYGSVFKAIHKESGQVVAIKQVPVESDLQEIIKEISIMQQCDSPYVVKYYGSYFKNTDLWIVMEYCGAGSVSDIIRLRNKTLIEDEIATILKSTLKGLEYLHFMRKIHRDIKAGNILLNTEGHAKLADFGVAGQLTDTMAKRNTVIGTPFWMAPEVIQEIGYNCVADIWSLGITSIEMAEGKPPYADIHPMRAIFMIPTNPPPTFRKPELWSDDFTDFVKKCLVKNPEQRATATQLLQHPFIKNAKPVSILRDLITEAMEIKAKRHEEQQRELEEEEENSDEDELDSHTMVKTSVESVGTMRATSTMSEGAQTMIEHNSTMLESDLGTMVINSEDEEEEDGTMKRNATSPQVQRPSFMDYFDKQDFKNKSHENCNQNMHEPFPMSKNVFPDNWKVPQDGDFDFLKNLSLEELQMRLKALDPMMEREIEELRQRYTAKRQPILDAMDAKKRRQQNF
# [7] = Cmax in mouse at 1 mg/kg, iv measured up to 12 hrs by LC-MS/MS analysis; assay type: ADME, organism-based; design: time < 12 hrs, dose 1 mg/kg, route iv; details: in vivo
# [8] = Cmax in mouse at 10 mg/kg, po measured up to 24 hrs by LC-MS/MS analysis; assay type: ADME, organism-based; design: dose 10 mg/kg, time < 24 hrs, route po; details: in vivo
# [9] = Oral bioavailability in Beagle dog at 10 mg/kg measured up to 24 hrs by LC-MS/MS analysis; assay type: ADME, organism-based, Canis lupus familiaris; details: in vivo
# [10] = tested on: Serine/threonine-protein kinase 4 (Rattus norvegicus); assay: Inhibition of IL-1beta-stimulated MST1 phosphorylation in rat RIN-m5F cells incubated for 12 hrs by Western blotting analysis; details: dose 0.1-10 µM, DDE = dose-dependent effect
# RIN-m5F = assay: Protection against IFN-gamma-induced cell damage in rat RIN-m5F cells assessed as increase in cell survival at 0.03 to 0.3 uM incubated for 48 hrs by Cell Titer-Glo assay; assay type: functional, cell-based; details: dose 0.03-0.3 µM
# [11] = Cmax in mouse Pancreas at 50 mg/kg, po measured up to 24 hrs by LC-MS/MS analysis; assay type: ADME, organism-based; design: dose 50 mg/kg, time < 24 hrs, route po
# [12] = AUC (0 to t) in Sprague-Dawley rat at 10 mg/kg, po measured up to 24 hrs by LC-MS/MS analysis; assay type: ADME, organism-based; design: time < 24 hrs, dose 10 mg/kg, route po; details: in vivo
# Mus musculus [13] = assay: Antidiabetic activity against 8 hrs fasted multi low dose STZ-induced C57BL/6J mouse model of type 1 diabetes assessed as decrease in fasting blood glucose level at 50 mg/kg, po administered measured immediately in presence of metformin (reference value: 19.3 mmol/L); assay type: functional
# Mus musculus [14] = assay: Antidiabetic activity against 8 hrs fasted multi low dose STZ-induced C57BL/6J mouse model of type 1 diabetes assessed as decrease in fasting blood glucose level at 50 mg/kg, po administered for 77 days (reference value: 22.3 mmol/L); assay type: functional; details: time 77 day
# Mus musculus [15] = assay: Antidiabetic activity against multi low dose STZ-induced C57BL/6J mouse model of type 1 diabetes assessed as food intake at 50 mg/kg, po administered for 1 to 2 days (reference value: 4.5 g/day); assay type: functional; details: time 1-2 day
# [16] = Half life in mouse at 1 mg/kg, iv measured up to 12 hrs by LC-MS/MS analysis; assay type: ADME, organism-based; details: in vivo
# [17] = Cytotoxicity against rat RIN-m5F cells at 10 uM incubated for 72 hrs by Cell Titer-Glo assay; assay type: toxicity, cell-based
# [18] = tested on: Serine/threonine-protein kinase 4 (Rattus norvegicus); assay: Inhibition of TNF-alpha-stimulated MST1 phosphorylation in rat RIN-m5F cells incubated for 12 hrs by Western blotting analysis; details: dose 0.1-10 µM, DDE = dose-dependent effect
# Mus musculus [19] = assay: Antidiabetic activity against multi low dose STZ-induced C57BL/6J mouse model of type 1 diabetes assessed as increase in water consumption at 50 mg/kg, po administered upto 79 days in presence of metformin; assay type: functional, organism-based; details: time <= 79.0 day
# [20] = Clearance in mouse plasma at 50 mg/kg, po measured up to 24 hrs by LC-MS/MS analysis; assay type: ADME, organism-based
# Mus musculus [21] = assay: Antidiabetic activity against 12 hrs fasted high fat diet-STZ-induced C57BL/6J mouse model of type 2 diabetes assessed as decrease in fasting blood glucose level at 50 mg/kg, po qd administered measured immediately in presence of metformin (reference value: 20.3 mmol/L); assay type: functional
# Mus musculus [22] = assay: Antidiabetic activity against high fat diet-STZ-induced C57BL/6J mouse model of type 2 diabetes assessed as improvement in food intake at 50 mg/kg, po qd administered upto 106 days in presence of metformin; assay type: functional, organism-based; details: time <= 106.0 day
compound,measurement,setting,value
Cc1ccccc1C1C(=O)N(C)c2cnc(Nc3ccc(S(N)(=O)=O)cc3)nc2N1C (centres undefined),Activity,Mus musculus [1],4 g/day
same,Activity,INS1,Non-Toxic
same,inhibition,[2],Dde
same,half-life,[3],3.03 h
same,Kd,[4],0.24 µM
same,half-life,[5],3.51 h
same,Kd,[6],2.7 µM
same,Cmax,[7],1240 ng/mL
same,Cmax,[8],1920 ng/mL
same,bioavailability,[9],106%
same,inhibition,[10],Dde
same,Activity,RIN-m5F,Active
same,Cmax,[11],12200 ng/mL
same,AUCt,[12],4858 ng·h/mL
same,Activity,Mus musculus [13],19.3 mmol/L
same,Activity,Mus musculus [14],14.2 mmol/L
same,Activity,Mus musculus [15],4.5 g/day
same,half-life,[16],1.7 h
same,Activity,[17],Non-Toxic
same,inhibition,[18],Dde
same,Activity,Mus musculus [19],Active
same,CL/F,[20],62.2 mL/min/kg
same,Activity,Mus musculus [21],20.3 mmol/L
same,Activity,Mus musculus [22],Active
